# From patent US20090270255A1 (priority 2005, published 2009)
# Where two headings read alike, the source gives them in different places.
# Test system: Pyricularia oryzae
# Type: cell-based
# [1] = single active compound, conc. 1 ppm, MTP measured at 405 nm on day 7 after inoculation, 18° C.
Compound,Observed effect (%) [1],Observed effect (%),"Observed effect (%) (single active compound, conc. 4 ppm, MTP measured at 405 nm on day 7 after inoculation, 18° C.)"
"Fc1ccc(C2(Cn3cncn3)OC2c2ccccc2Cl)cc1 (stereo not shown) [Epoxiconazole, epoxiconazole]",0%,–,–
bromuconazole,–,0%,–
"CC1(C)CC/C(=C\c2ccc(Cl)cc2)C1(O)Cn1cncn1 (stereo not shown) [Triticonazole, triticonazole]",3%,–,13%
